Laboratory results published in PMC4188605, “Biochemical and Pharmacological Characterization of the Human Lymphocyte Antigen B-Associated Transcript 5 (BAT5/ABHD16A)” (PLoS ONE, 2014).
Like-named read-outs stand apart in the source and are kept apart here.

Tests used:
hABHD12 = molecular target: T1, hABHD12 (Homo sapiens, UniProt Q8N2K0); experiment: Free fatty acid release assay, hABHD12-HEK293 lysates; type: biochemical; settings: 25 µM substrate; without BSA; 10 and 20 min
T1 construct: expressed in transfected cells; host or cells: HEK293
T1 sequence (Q8N2K0 1-398): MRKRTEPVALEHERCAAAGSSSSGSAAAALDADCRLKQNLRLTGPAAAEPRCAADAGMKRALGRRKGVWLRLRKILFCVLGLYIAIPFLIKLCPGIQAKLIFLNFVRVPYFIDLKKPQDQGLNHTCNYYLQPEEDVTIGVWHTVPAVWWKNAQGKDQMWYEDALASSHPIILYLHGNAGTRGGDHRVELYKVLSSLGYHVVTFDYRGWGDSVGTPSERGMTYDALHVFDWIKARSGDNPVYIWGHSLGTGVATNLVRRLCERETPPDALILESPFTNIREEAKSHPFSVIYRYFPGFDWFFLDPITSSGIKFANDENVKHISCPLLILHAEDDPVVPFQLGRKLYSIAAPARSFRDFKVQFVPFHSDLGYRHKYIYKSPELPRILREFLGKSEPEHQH
Procedure: (§1) Figure 4 Fatty acid liberation from various substrates when incubated together with lysates of HEK293 cells expressing hBAT5 or hABHD12. […] Assay blank and fatty acid standard (C18∶1) were included for each condition. FFA content was determined at time-points 10 and 20 min. Data are mean ± SEM from quadruplicate wells in one experiment.
(§2) We adapted the Free Fatty Acid Assay Kit (Cayman Chemical Item Number 700310) to kinetically monitor fatty acid release from selected substrates using lysates of HEK293 cells (0.3 µg/well) transiently expressing hBAT5 or hABHD12 (as a positive control). The assay protocol was tailored to closely follow the scheme of the 96-well-plate glycerol assay with the exception that BSA was omitted. […] For each tested substrate, assay blank without enzyme and a fatty acid standard (C18∶1-FA, 500 pmol/well) was included.

hBAT5 [1] = molecular target: T2, hBAT5 (Homo sapiens, UniProt O95870); experiment: Free fatty acid release assay, hBAT5-HEK293 lysates; type: biochemical; parameters: host or cells: HEK293; settings: 25 µM substrate; without BSA; 10 and 20 min
T2 sequence (O95870 1-558): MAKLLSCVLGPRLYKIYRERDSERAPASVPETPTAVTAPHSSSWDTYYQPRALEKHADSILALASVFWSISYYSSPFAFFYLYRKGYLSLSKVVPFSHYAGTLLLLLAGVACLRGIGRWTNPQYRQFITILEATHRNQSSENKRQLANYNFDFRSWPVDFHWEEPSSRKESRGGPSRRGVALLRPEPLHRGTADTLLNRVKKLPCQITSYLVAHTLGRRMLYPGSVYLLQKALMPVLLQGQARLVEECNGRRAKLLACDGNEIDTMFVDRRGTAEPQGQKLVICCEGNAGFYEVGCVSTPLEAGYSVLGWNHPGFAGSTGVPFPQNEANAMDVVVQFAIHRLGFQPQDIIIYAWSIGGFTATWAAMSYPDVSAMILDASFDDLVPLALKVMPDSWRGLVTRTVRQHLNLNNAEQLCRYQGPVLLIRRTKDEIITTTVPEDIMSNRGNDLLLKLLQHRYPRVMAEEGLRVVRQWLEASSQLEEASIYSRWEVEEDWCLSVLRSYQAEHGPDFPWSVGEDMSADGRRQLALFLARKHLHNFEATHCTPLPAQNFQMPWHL
Procedure: as §1, §2

hBAT5 [2] = molecular target: T2, hBAT5; experiment: hBAT5 substrate hydrolysis and Michaelis-Menten kinetics (glycerol assay, hBAT5-HEK293 lysates); settings: 25 µM substrate
Procedure: HEK293 cells were transiently transfected with the cDNA encoding hBAT5, as detailed in the Methods section. After 48 h, cells were harvested and lysates prepared for hydrolase activity measurements using a sensitive fluorescent glycerol assay. […] Glycerol production was determined at time-point 60 min.
After 48 h, cells were harvested and lysates prepared for hydrolase activity measurements. Cellular lysates (0.3 µg/well) were incubated together with the indicated concentrations of 1-LG in assay mixes containing (+ BSA) or not (– BSA) 0.5% (w/v) BSA (A) or with 15d-PGJ2-G in assay mix containing BSA (B). […] As crude cellular lysates were used, total protein concentration was used instead of true enzyme concentration. […] Values are mean ± SEM from three independent experiments.
Glycerol liberated from the hydrolysis of glycerolipid substrates was determined kinetically using a fluorometric assay, essentially as previously described [10]. Briefly, glycerol production was coupled via a three-step enzymatic cascade to hydrogen peroxide (H2O2) dependent generation of resorufin whose fluorescence (λex 530; λem 590 nm) was kinetically monitored using a Tecan Infinite M200 plate reader (Tecan Group Ltd., Männedorf, Switzerland). The assays routinely contained 0.5% (w/v) BSA (essentially fatty acid free) as a carrier for lipophilic compounds. […] The twelve MAG substrates were tested also in assays without BSA. In addition, four commercially available PG-Gs were included. To monitor assay performance, assay blanks without enzyme, cellular background (HEK293/Mock cell lysates) as well as a glycerol standard were included for each tested substrate. Fluorescence of the assay blank was subtracted before calculation of the final results.

MAGL = molecular target: T3, MAGL (Mus musculus, UniProt O35678); experiment: Competitive ABPP, mouse brain membrane proteome: MAGL doublet; settings: reference inhibitor at the indicated concentration, used to identify the band (refs 21, 22)
T3 sequence (O35678 1-303): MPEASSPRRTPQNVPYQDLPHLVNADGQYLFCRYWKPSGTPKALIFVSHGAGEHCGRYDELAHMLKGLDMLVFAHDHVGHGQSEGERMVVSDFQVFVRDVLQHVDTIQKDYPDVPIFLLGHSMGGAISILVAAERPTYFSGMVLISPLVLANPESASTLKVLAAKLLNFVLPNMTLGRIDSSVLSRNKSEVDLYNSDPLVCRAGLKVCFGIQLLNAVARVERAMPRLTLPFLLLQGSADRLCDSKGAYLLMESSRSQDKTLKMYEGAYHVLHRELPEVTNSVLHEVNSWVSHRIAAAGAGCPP

ABHD6 = molecular target: T4, ABHD6 (Mus musculus, UniProt Q8R2Y0); experiment: Competitive ABPP, mouse brain membrane proteome: ABHD6 band; settings: reference inhibitor at the indicated concentration, used to identify the band (refs 18, 23, 24)
T4 sequence (Q8R2Y0 1-336): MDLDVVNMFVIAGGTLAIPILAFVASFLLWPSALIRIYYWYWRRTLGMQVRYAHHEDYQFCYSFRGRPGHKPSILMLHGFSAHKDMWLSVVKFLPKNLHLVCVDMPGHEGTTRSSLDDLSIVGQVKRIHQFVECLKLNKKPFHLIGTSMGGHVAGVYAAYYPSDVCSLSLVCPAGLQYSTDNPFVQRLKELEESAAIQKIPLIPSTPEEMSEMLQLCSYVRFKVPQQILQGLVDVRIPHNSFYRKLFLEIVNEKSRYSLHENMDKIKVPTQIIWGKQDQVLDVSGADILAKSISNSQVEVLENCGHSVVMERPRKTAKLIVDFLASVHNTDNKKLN

hBAT5 [3] = molecular target: T2, hBAT5; experiment: Inhibition of 1-LG hydrolysis in hBAT5-HEK293 lysates (fluorescent glycerol assay); type: biochemical; parameters: host or cells: HEK293; settings: for hBAT5 inhibitory activity (in words): 1-LG hydrolysis; for remaining activity at 10 µM: at 10^-5 M; for fold decrease in activity when methyl (40) is replaced: 5-position substituent, relative to 40
[4] = 1-LG 25 µM, 30 min inhibitor pretreatment, monitored 90 min, mean, n=3, read-out: IC50
[5] = printed as LogIC50 with negative sign, 1-LG 25 µM, 30 min pretreatment, Figures 9 and 10, read-out: LogIC50 Mean ± SEM, n=3 (converted)

CCCCC/C=C\C/C=C\C/C=C\C/C=C\CCCC(=O)OC[C@@H](O)CO [1-AG, 1-arachidonoylglycerol]
fatty acid release by hABHD12 (in words) (hABHD12): hydrolyzed
fatty acid release by hBAT5 (in words) (hBAT5 [1]): hydrolyzed

CCCCCCCCCCCCCCCCCC(=O)OC[C@@H](O)CO [1-SG]
hydrolysis by hBAT5 (substrate utilization, in words) (hBAT5 [2]; with 0.5% BSA, 60 min): not utilized

O=C(N1CCC(C(c2ccc3c(c2)OCO3)c2ccc3c(c2)OCO3)CC1)n1cncn1 [JJKK-048]
inhibition of probe labeling of MAGL by reference inhibitor (MAGL): inhibited

CCCCCCCC/C=C\CCCCCCCC(=O)OC[C@@H](O)COP(=O)(O)O [LPA, 1-oleoyl-lysophosphatidic acid]
fatty acid release by hABHD12 (in words) (hABHD12): not from LPA
fatty acid release by hBAT5 (in words) (hBAT5 [1]): no statistically significant liberation of oleic acid

CCCCCCCC/C=C\CCCCCCCC(=O)OC[C@@H](O)COP(=O)(O)OC[C@H](N)C(=O)O [LPS, 1-oleoyl-lysophosphatidylserine]
fatty acid release by hABHD12 (in words) (hABHD12): catalyzed oleic acid release
fatty acid release by hBAT5 (in words) (hBAT5 [1]): no statistically significant liberation of oleic acid

CCCCCCCCCCCCCCCC(=O)OC(CO)CO [MAGs C16∶0, 2-palmitoyl-rac–glycerol]
hydrolysis by hBAT5 (substrate utilization, in words) (hBAT5 [2]; without BSA): barely detectable hydrolysis

CCCCC[C@H](O)/C=C/[C@@H]1[C@@H](C/C=C\CCCC(=O)OCC(O)CO)[C@@H](O)C[C@H]1O (stereo partly drawn) [PG-F2α-G, prostaglandin F2α-1-glycerol ester]
hydrolysis by hBAT5 (substrate utilization, in words) (hBAT5 [2]; with 0.5% BSA, 60 min): low

CCCCC[C@H](O)/C=C/[C@H]1C(=O)C[C@H](O)[C@@H]1C/C=C\CCCC(=O)OCC(O)CO (some centres unmarked) [PGD2-G, prostaglandin D2-1-glycerol ester]
hydrolysis by hBAT5 (substrate utilization, in words) (hBAT5 [2]; with 0.5% BSA, 60 min): to lesser extend

CCCCC[C@H](O)/C=C/[C@H]1[C@H](O)CC(=O)[C@@H]1C/C=C\CCCC(=O)OCC(O)CO (some centres unmarked) [PGE2-G, prostaglandin E2-1-glycerol ester]
hydrolysis by hBAT5 (substrate utilization, in words) (hBAT5 [2]; with 0.5% BSA, 60 min): low

CN(Cc1cccc(-c2ccncc2)c1)C(=O)Oc1ccc(-c2ccc(C(N)=O)cc2)cc1 [WWL70]
inhibition of probe labeling of ABHD6 by reference inhibitor (ABHD6): inhibited

COc1nn(-c2ccc([N+](=O)[O-])cc2)c(=O)o1 [compound 41, 5-Methoxy-3-(4-nitrophenyl)-1,3,4-oxadiazol-2(3H)-one]
IC50 (hBAT5 [3]; [4]): 339 nM

COc1nn(-c2ccccc2F)c(=O)o1 [compound 42]
IC50 (hBAT5 [3]; [4]): 50 nM

COc1nn(-c2cccc(F)c2)c(=O)o1 [compound 43]
IC50 (hBAT5 [3]; [5]): 41.7 nM

COc1nn(-c2ccc(Br)cc2)c(=O)o1 [compound 45]
IC50 (hBAT5 [3]; [4]): 110 nM

COc1nn(-c2ccc(I)cc2)c(=O)o1 [compound 46]
IC50 (hBAT5 [3]; [4]): 355 nM

COc1nn(-c2cccc(C#N)c2)c(=O)o1 [compound 47]
IC50 (hBAT5 [3]; [4]): 78 nM

COc1nn(-c2ccccc2C)c(=O)o1 [compound 48]
hBAT5 inhibitory activity (in words) (hBAT5 [3]): inactive
remaining activity at 1 µM (hBAT5 [3]; at 10^-6 M, 1-LG 25 µM): 93.4 ± 1.9%

COc1nn(Cc2cccc(Oc3ccccc3)c2)c(=O)o1 [compound 49]
hBAT5 inhibitory activity (in words) (hBAT5 [3]): loss of hBAT5 inhibitory activity
remaining activity at 10 µM (hBAT5 [3]; 1-LG 25 µM): 102 ± 8.2%

COc1nn(Cc2cccc([N+](=O)[O-])c2)c(=O)o1 [compound 50, 5-Methoxy-3-(3-nitrobenzyl)-1,3,4-oxadiazol-2(3H)-one]
hBAT5 inhibitory activity (in words) (hBAT5 [3]): loss of hBAT5 inhibitory activity
remaining activity at 10 µM (hBAT5 [3]; 1-LG 25 µM): 99.3 ± 4.7%

CCOc1nn(-c2cccc([N+](=O)[O-])c2)c(=O)o1 [compound 51, 5-Ethoxy-3-(3-nitrophenyl)-1,3,4-oxadiazol-2(3H)-one]
IC50 (hBAT5 [3]; [4]): 126 nM
fold decrease in activity when methyl (40) is replaced (hBAT5 [3]): about twofold

O=c1oc(Oc2ccccc2)nn1-c1cccc([N+](=O)[O-])c1 [compound 52, 3-(3-Nitrophenyl)-5-phenoxy-1,3,4-oxadiazol-2(3H)-one]
IC50 (hBAT5 [3]; [4]): 138 nM
fold decrease in activity when methyl (40) is replaced (hBAT5 [3]): about twofold

O=c1oc(OCc2ccccc2)nn1-c1cccc([N+](=O)[O-])c1 [compound 53, 5-(Benzyloxy)-3-(3-nitrophenyl)-1,3,4-oxadiazol-2(3H)-one]
fold decrease in activity when methyl (40) is replaced (hBAT5 [3]): 24 fold
IC50 (hBAT5 [3]; [5]): 1480 nM

COc1ccc(Oc2nn(-c3cccc([N+](=O)[O-])c3)c(=O)o2)cc1 [compound 54, 5-(4-Methoxyphenoxy)-3-(3-nitrophenyl)-1,3,4-oxadiazol-2(3H)-one]
IC50 (hBAT5 [3]; [4]): 631 nM
fold decrease in activity when methyl (40) is replaced (hBAT5 [3]): 10 fold

O=c1oc(Oc2ccc([N+](=O)[O-])cc2)nn1-c1cccc([N+](=O)[O-])c1 [compound 55, 5-(4-Nitrophenoxy)-3-(3-nitrophenyl)-1,3,4-oxadiazol-2(3H)-one]
hBAT5 inhibitory activity (in words) (hBAT5 [3]): weakest inhibitor of this series
remaining activity at 10 µM (hBAT5 [3]; 1-LG 25 µM): 50.5 ± 3.7%
